According to patent US8232289B2, “Spiropiperidine compounds as ORL-1 receptor antagonists” (Eli Lilly and Company, priority 2009, dated 2012):
Marks after values point to notes of the source that are not given here.

How the values were obtained:
[1] = Rat hepatic microsomal glutathione trapping assay; type: in vitro ADME; conditions: hepatic microsomal homogenate, glutathione as nucleophile
Text: Assuming that reactive metabolites may play a role in clinical IDRs, minimizing the potential for oxidative bioactivation has been proposed as a means of improving the overall safety profile of compounds containing structural features associated with such reactivity. (see Baillie, Thomas A., Approaches to the Assessment of Stable and Chemically Reactive Drug Metabolites in Early Clinical Trials, Chemical Research in Toxicology, vol 22(2) 2009.) To this end, representative compounds of the present invention and related compounds are screened using a rat hepatic microsomal trapping assay, using glutathione as an endogenous nucleophile, to understand the potential for oxidative bioactivation of the thienyl moiety. […] Of the compounds tested, those wherein R^2a and R^2b are fluoro are found to not show glutathione conjugate formation.

Male Sprague-Dawley rats = assay: Rat dural plasma protein extravasation (PPE) model, oral dosing; type: in vivo; conditions: 1.0 mg/kg po
Description: All test compounds are prepared in a vehicle solution containing 20% Captisol in 25 mM phosphate buffer (pH 2.0). The positive control compound, sumatriptan, is dissolved in saline. Male Sprague-Dawley rats from Harlan Laboratories (250 to 350 g), that have been fasted overnight, are dosed with test compound, sumatriptan or vehicle by oral gavage (2 mL/kg). Fifty min. post-dose the rats are anesthetized with Nembutal (60 mg/kg, ip) and placed in a stereotaxic frame with the incisor bar set at −2.5 mm. Following a mid-line sagittal scalp incision, 2 pairs of bilateral holes were drilled through the skull (3.2 mm posteriorly, 1.8 and 3.8 mm laterally, all coordinates referenced to bregma). Pairs of stainless steel stimulating electrodes (Rhodes Medical Systems Inc), insulated except at the tips, are lowered through the holes in both hemispheres to a depth of 9.2 mm below the dura.
A solution of fluoroscein isothiocyanate (FITC) dye-labeled bovine serum albumin (BSA) (FITC-BSA) (20 mg/kg, iv), is injected into the femoral vein 2 minutes prior to electrical stimulation of the trigeminal ganglion to function as the marker for protein extravasation. Sixty minutes following dosing with test compound or vehicle, the left trigeminal ganglion is electrically stimulated for 5 minutes at a current intensity of 1.0 mA (5 Hz, 5 minutes duration).
Five minutes following stimulation, the rats are killed by exsanguination with 40 mL of saline which also rinses residual FITC/BSA out of the blood vessels. The top of the skull is removed to collect the dural membranes. The membrane samples are removed from both hemispheres, rinsed with water, and spread flat on microscope slides. The slides are dried for 15 minutes on a slide warmer and cover-slipped with a 70% glycerol/water solution.
A fluorescence microscope equipped with a grating monochromator and a spectrophotometer is used to quantify the amount of FITC-BSA dye in each dural sample. The microscope is equipped with a motorized stage interfaced with a personal computer. This facilitates the computer-controlled movement of the stage, with fluorescence measurements at 25 points (500 μm steps) on each dural sample. The extravasation induced by electrical stimulation of the trigeminal ganglion is an ipsilateral effect (that is occurs only on the side of the dura in which the trigeminal ganglion is stimulated). This allows the other (unstimulated) half of the dura to be used as a control. The extravasation ratio (that is the ratio of the amount of extravasation in the dura from the stimulated side compared to the unstimulated side) is calculated. Animals dosed with vehicle alone or an ineffective dose of the test compound have an extravasation ratio of approximately 2, while totally effective treatments result in a ratio of approximately 1.
Results are expressed as mean values with standard errors of the mean (±SEM). All statistical evaluations are conducting utilizing ANOVA followed by comparison to the control group by Dunnett's Method. Statistical significance is assumed when p<0.05. Statistical analyses are performed using JMP statistical analysis software (SAS Research Institute, version 6.0.2).

male NIH-Swiss mice = assay: Forced-swim test in mice (mFST); type: in vivo
Text: (§1) mFST is an established in vivo assay for antidepressant activity (Li et al. J Pharmacol Exp Ther. 319(1):254-9, 2006.). […] The mFST was used to evaluate potential antidepressant-like activity of novel nociceptin/ORL1 antagonists according to previously published methods (Li et al. J Pharmacol Exp Ther. 319(1):254-9, 2006.). Briefly, male NIH-Swiss mice (Harlan Sprague-Dawley, Indianapolis, Ind.) weighing between 25-30 g are used. Group housed animals are removed from the vivarium to the testing area in their own cages and allowed to adapt to the new environment for at least 1 hour before testing. Alternatively, male 129S6 wild type and nociceptin/ORL1 receptor knockout mice were used to confirm dependence of the response to compound was nociceptin/ORL1 receptor dependent. All compounds are prepared in 20% Captisol, 25 mM phosphate buffer, pH 2.0 on the day of use. Mice are placed in a cylinder (diameter: 10 cm; height: 25 cm) filled with 6 cm of water (22-25° C.) for 6 min. The duration of immobility during the last 4 min. of the 6 min. period of the test was scored. A mouse is recorded as immobile when floating motionless or making only those movements necessary to keep its head above water.

[2] = tested on: 129S6 wild type and nociceptin/ORL1 receptor knockout mice; assay: mFST in wild type and ORL-1 knockout mice; type: in vivo
Text: as §1
Yet further, these effects of reduced immobilization times are not observed when ORL-1 knockout mice, a strain of mice engineered to lack the ORL-1 receptor, are used, showing that the effect is indeed mediated by the ORL-1 receptor.

[3] = tested on: wild type and ORL knockout mice; assay: Blockade of fasting-induced hyperphagia in mice; type: in vivo
Text: Blockade of fasting-induced hyperphagia in rodents is an accepted model for hyperphagic eating disorders. […] Mice are individually housed a minimum of 3 days prior to the onset of testing to eliminate any effects of stress due to the change from group to individual housing. Three mice/genotype are randomly assigned to each treatment group on the test day. Pre-fast body weight measurements are taken, and food is then removed from cages overnight. Mice are fasted for approximately 15 hr. The next morning, the mice are given one of three doses of drug or vehicle via oral gavage 30 min. prior to gaining access to food. Drugs are dissolved in 20% Captisol dissolved in 25 mM phosphate buffer, pH 2.0. Measurements of body weight are taken immediately prior to drug treatment or 24 hr. after access to food is restored. […] Measurements of food intake are recorded 1 hr following access to food, as indicated, by weight of food remaining at 1 hr. It should be noted that food intake measured is during the light phase, a time during which mice are typically at rest and not normally eating. Following initial testing, mice are rested for 1 week with access to unlimited chow.

[4] = molecular target: T1, cloned human ORL1/nociceptin receptors (Homo sapiens, UniProt P41146); assay: Functional blockade of agonist-mediated G-protein activation, GTP-γ-[35S] binding; type: biochemical; conditions: stimulation with 300 nM nociceptin/OFQ; read-out: Kb for the ORL-1 receptor (antagonist affinity)
T1 construct: expressed in transfected cells
T1 sequence (P41146 whole entry): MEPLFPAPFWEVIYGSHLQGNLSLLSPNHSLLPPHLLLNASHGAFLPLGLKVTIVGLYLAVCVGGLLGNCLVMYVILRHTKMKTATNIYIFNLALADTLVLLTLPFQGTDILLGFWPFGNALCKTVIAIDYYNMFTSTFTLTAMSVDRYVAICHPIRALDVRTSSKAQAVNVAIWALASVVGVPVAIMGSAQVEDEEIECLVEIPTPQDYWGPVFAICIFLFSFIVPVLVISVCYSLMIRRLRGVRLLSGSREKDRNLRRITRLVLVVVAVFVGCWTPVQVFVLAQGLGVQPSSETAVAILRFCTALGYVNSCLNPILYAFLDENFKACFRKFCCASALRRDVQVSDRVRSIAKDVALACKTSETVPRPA
Text: Agonist-mediated stimulation of G-protein coupled receptors results in the activation of membrane associated Gαβγ-protein heterotrimer complexes, and represents the first step in the transduction of extracellular signals to modification of intracellular pathways. The first step in activation of receptor-mediated activation of Gαβγ-proteins heterotrimer is the exchange of Gα subunit bound guanosine diphoshpate (GDP) for guanosine triphosphate (GTP). The binding of GTP to the Gα subunit causes dissociation of the heterotrimer subunits, Gβ and Gγ, resulting in the modulation of several intracellular signaling cascades. Measurement of receptor-mediated G-protein activation can be measured using the non-hydrolyzable radiolabeled analog of GTP, GTP-γ-[35S]. Utilizing this methodology, antagonist affinity (Kb) is measured in membranes expressing cloned human ORL1/nociceptin receptors using a GTP-γ-[35S] binding assay according to previously described protocols with minor modifications (DeLapp et al., J Pharmacol Exp Ther. 1999 May; 289(2):946-55; Ozaki et al., Eur J Pharmacol. 2000 Aug. 18; 402(1-2):45-53). Assays are conducted in a 200-μl volume with the following buffer composition: 100 mM NaCl, 20 mM HEPES, 5 mM MgCl2, 1 mM EDTA, 0.1% BSA, 3 μM GDP, 0.5 nM [^35S]GTPγS. ORL1 receptor membrane suspension is added at a concentration of 20 μg protein per well and receptor stimulation is achieved using 300 nM nociceptin/OFQ. Wheat germ agglutinin coated SPA beads (Amersham, Arlington Hts., IL) are added at 1 mg per well to detect membrane-bound [^35S]GTPγS. Plates are sealed and incubated for 2 hr. at room temperature. Plates are then placed at 4° C. overnight to allow the SPA beads to settle and then counted in a Wallac Microbeta. Specific [^35S]GTPγS binding is determined as the difference in CPM observed in the absence and presence of 10 μM unlabeled GTPγS. Data are plotted as the percent of specific [^35S]GTPγS bound. Curves are plotted as the percent of specific binding and IC50 values are determined using a sigmoidal dose response curve with variable slope. […]

In the case of `COCc1cccnc1-n1cc(CN2CCC3(CC2)OCC(F)(F)c2cc(F)sc23)c(C)n1.O=C(O)C(O)C(O)C(=O)O` [Example 10, 2,4,4-Trifluoro-1′-[[1-[3-(methoxymethyl)-2-pyridyl]-3-methyl-pyrazol-4-yl]methyl]spiro[5H-thieno[2,3-c]pyran-7,4′-piperidine] (L)-Tartrate], the Glutathione conjugate formation [1] is reported as “No”.

For `CNS(=O)(=O)Cc1ccc2[nH]cc(CCN(C)C)c2c1` [Sumatriptan, reference compound], the “Extravasation Ratio (mean)” value (Male Sprague-Dawley rats) was 1.06*.

In the case of `COCc1cccnc1-n1cc(CN2CCC3(CC2)OCCc2cc(Cl)sc23)c(C)n1.O=C(O)C(O)C(O)C(=O)O` [Example 14, 2-Chloro-1′-[[1-[3-(methoxymethyl)-2-pyridyl]-3-methyl-pyrazol-4-yl]methyl]spiro[4,5-dihydrothieno[2,3-c]pyran-7,4′-piperidine] (L)-Tartrate], the Glutathione conjugate formation [1] is reported as “Yes”.

In the case of `CN(C)CCCN1c2ccccc2CCc2ccccc21` [Imiprimine, reference compound], the “Immobilization Time” value (male NIH-Swiss mice; 15 mg/kg, positive control) is reported as 96* sec, the “effect on immobilization time” value ([2]; ORL-1 knockout mice) is reported as “reduce immobilization times in both the wild type and knockout mice to an equivalent degree” and the “effect on immobilization time” value ([2]; wild type mice) is reported as “reduce immobilization times in both the wild type and knockout mice to an equivalent degree”.

In the case of `Clc1cccc(N2CCNCC2)c1` [mCPP, meta-chlorophenylpiperazine, reference compound], the “effect on fasting-induced hyperphagia” value ([3]; ORL-1 knockout mouse strain) is reported as “significantly reduce fasting induced hyperphagia equally in both wild type mice and the ORL-1 knockout mouse strain” and the “effect on fasting-induced hyperphagia” value ([3]; wild type mice, oral gavage 30 min. prior to food, food intake at 1 hr) is reported as “significantly reduce fasting induced hyperphagia equally in both wild type mice and the ORL-1 knockout mouse strain”.

`Cc1nn(-c2ncccc2CO)cc1CN1CCC2(CC1)OCC(F)(F)c1cc(Cl)sc12` [Example 1, [2-[4-[(2-Chloro-4,4-difluoro-spiro[5H-thieno[2,3-c]pyran-7,4′-piperidine]-1′-yl)methyl]-3-methyl-pyrazol-1-yl]-3-pyridyl]methanol (L)-tartrate] showed a Kb [4] of 0.2 nM.

In the case of `Cc1nn(-c2c(F)cccc2C(N)=O)cc1CN1CCC2(CC1)OCCc1c2sc(F)c1F.O=C(O)C(O)C(O)C(=O)O` [3-fluoro-2-[4-[(2,3-difluorospiro[4,5-dihydrothieno[2,3-c]pyran-7,4′-piperidine]-1′-yl)methyl]-3-methyl-pyrazol-1-yl]benzamide (L) Tartrate, reference compound], the Glutathione conjugate formation [1] is reported as “Yes”.

In the case of `Cc1nn(-c2c(F)cccc2C(N)=O)cc1CN1CCC2(CC1)OCCc1cc(F)sc12.O=C(O)C(O)C(O)C(=O)O` [3-fluoro-2-[4-[(2-fluorospiro[4,5-dihydrothieno[2,3-c]pyran-7,4′-piperidine]-1′-yl)methyl]-3-methyl-pyrazol-1-yl]benzamide (L) Tartrate, reference compound], the Glutathione conjugate formation [1] is reported as “Yes”.

With `CNCCC(Oc1ccc(C(F)(F)F)cc1)c1ccccc1` (stereo not drawn) [fluoxetine, reference compound] the “Immobilization Time” value (male NIH-Swiss mice; 10 mg/Kg, alone) was 168 s.
